Measurements as given in patent publication US11629171B2, “Beta-hairpin peptidomimetics” (POLYPHOR AG, priority 2017, dated 2023).
Converted amounts (≈) assume the structure as drawn. Where a SMILES comes first, the peptide text is derived from it. Bridges are numbered along the chain shown (N, C = ends). Roman numbers before positions name the chains, in order. [ ]: non-standard residue; d: D form. Tle = CC(C)(C)[C@H](N)C(=O)O; NMeV = CN[C@H](C(=O)O)C(C)C; Hiv = CC(C)[C@H](O)C(=O)O; dDab = NCC[C@@H](N)C(=O)O; hSer = N[C@@H](CCO)C(=O)O; Dab = NCC[C@H](N)C(=O)O; Dap = NC[C@H](N)C(=O)O

Experiments:
Assay type in all cases: cell-based
[1] = system: Klebsiella pneumoniae SSI #3010; conditions: SSI #3010
Procedure, shortened: (§1)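 Two-fold peptide dilutions in polysorbate 80-containing (0.002% final) cation-adjusted Mueller-Hinton II broth were inoculated with about 10^6 CFU/mL. The MIC was taken as the lowest concentration, in μg/mL, preventing visible growth at 18-20 hours and 35° C.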

[2] = system: Pseudomonas aeruginosa ATCC 27853; conditions: ATCC 27853
Procedure, shortened: as §1

[3] = system: Escherichia coli ATCC 25922; conditions: ATCC 25922
Procedure, shortened: as §1

[4] = system: Klebsiella pneumoniae 968733; conditions: 968733
Procedure, shortened: as §1

[5] = system: Acinetobacter baumannii 872842; conditions: 872842
Procedure, shortened: as §1

Escherichia coli 926415 = conditions: 926415
Procedure, shortened: as §1

[6] = system: Enterobacter cloacae 848840; conditions: 848840
Procedure, shortened: as §1

[7] = system: Acinetobacter baumannii DSM 30008; conditions: DSM 30008
Procedure, shortened: as §1

[8] = system: human red blood cells (hRBC); assay: Hemolysis; conditions: red cells of human, 1 h, 200
Procedure, shortened: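 Hemoglobin release from PBS-washed hRBC at 20% (v/v), incubated 1 h at 37° C with peptides at 200 μg/mL, is measured at 540 nm. Values are blank corrected and given as a fraction of Triton X-100 lysis × 100%.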

SMILES	MIC [1]	MIC [2]	MIC [3]	MIC [4]	MIC [5]	MIC (Escherichia coli 926415)	MIC [6]	MIC [7]	Hemolysis at 200 μg/mL [8]
CC(C)C[C@@H]1NC(=O)[C@@H](CC(C)C)NC(=O)[C@H](CCN)NC(=O)[C@@H](NC(=O)[C@H](CCN)NC(=O)[C@@H](NC(=O)[C@H](CCN)NC(=O)CC[C@@H]2NC(=O)[C@H](CCN)NC(=O)[C@H](Cc3ccc(O)cc3)NC(=O)[C@@H](NC(=O)[C@@H](O)C(C)C)CSSC[C@@H](C(N)=O)NC(=O)[C@H](C(C)(C)C)NC(=O)[C@H](CO)NC(=O)[C@H](Cc3c[nH]c4ccccc34)NC(=O)[C@H](CCO)NC(=O)[C@@H](CCN)NC2=O)[C@@H](C)O)CCNC(=O)[C@H]([C@@H](C)O)NC(=O)[C@H](CCN)NC(=O)[C@H](CCN)NC1=O [Example 7] (I: H-[Hiv]CY[Dab]E[dDab][hSer]WS[Tle]C-NH2 / II: [Dab]T[Dab][Dab][Dab][dL]L[Dab][Dab]T; disulfide I:2-I:11; amide I:5-II:N; lactam II:4-II:C)	0.125 µg/mL (≈ 0.054 µM)	0.125 µg/mL (≈ 0.054 µM)	0.125 µg/mL (≈ 0.054 µM)	0.25 µg/mL (≈ 0.108 µM)	1 µg/mL (≈ 0.432 µM)	0.5 µg/mL (≈ 0.216 µM)	2 µg/mL (≈ 0.865 µM)	0.0625 µg/mL (≈ 0.027 µM)	<1%
CC(=O)N[C@H](C(=O)N[C@H]1CSSC[C@@H](C(N)=O)NC(=O)[C@H](C(C)(C)C)NC(=O)[C@H](CO)NC(=O)[C@H](Cc2c[nH]c3ccccc23)NC(=O)[C@H](CO)NC(=O)[C@@H](CCN)NC(=O)[C@H](CCC(=O)N[C@@H](CCN)C(=O)N[C@H](C(=O)N[C@@H](CN)C(=O)N[C@H]2CCNC(=O)[C@H]([C@@H](C)O)NC(=O)[C@H](CCN)NC(=O)[C@H](CCN)NC(=O)[C@H](CC(C)C)NC(=O)[C@@H](CC(C)C)NC(=O)[C@H](CCN)NC2=O)[C@@H](C)O)NC(=O)[C@H](CN)NC(=O)[C@H](Cc2ccc(O)cc2)NC1=O)C(C)C [Example 8] (I: Ac-VCY[Dap]E[dDab]SWS[Tle]C-NH2 / II: [Dab]T[Dap][Dab][Dab][dL]L[Dab][Dab]T; disulfide I:2-I:11; amide I:5-II:N; lactam II:4-II:C)	0.125 µg/mL (≈ 0.0541 µM)	0.125 µg/mL (≈ 0.0541 µM)	0.0625 µg/mL (≈ 0.027 µM)	0.25 µg/mL (≈ 0.108 µM)	0.0625 µg/mL (≈ 0.027 µM)	0.5 µg/mL (≈ 0.216 µM)	0.25 µg/mL (≈ 0.108 µM)	0.125 µg/mL (≈ 0.0541 µM)	<1%
CN[C@H](C(=O)N[C@H]1CSSC[C@@H](C(N)=O)NC(=O)[C@H](C(C)(C)C)NC(=O)[C@H](CO)NC(=O)[C@H](Cc2c[nH]c3ccccc23)NC(=O)[C@H](CCN)NC(=O)[C@@H](CCN)NC(=O)[C@H](CCC(=O)N[C@@H](CCN)C(=O)N[C@H](C(=O)N[C@@H](CN)C(=O)N[C@H]2CCNC(=O)[C@H]([C@@H](C)O)NC(=O)[C@H](CCN)NC(=O)[C@H](CCN)NC(=O)[C@H](CC(C)C)NC(=O)[C@@H](CC(C)C)NC(=O)[C@H](CCN)NC2=O)[C@@H](C)O)NC(=O)[C@H](CN)NC(=O)[C@H](Cc2ccc(O)cc2)NC1=O)C(C)C [Example 9] (I: H-[NMeV]CY[Dap]E[dDab][Dab]WS[Tle]C-NH2 / II: [Dab]T[Dap][Dab][Dab][dL]L[Dab][Dab]T; disulfide I:2-I:11; amide I:5-II:N; lactam II:4-II:C)	0.125 µg/mL (≈ 0.0544 µM)	0.125 µg/mL (≈ 0.0544 µM)	0.125 µg/mL (≈ 0.0544 µM)	0.5 µg/mL (≈ 0.218 µM)	0.125 µg/mL (≈ 0.0544 µM)	1 µg/mL (≈ 0.435 µM)	0.25 µg/mL (≈ 0.109 µM)	0.125 µg/mL (≈ 0.0544 µM)	<1%
CC(=O)N[C@H](C(=O)N[C@H]1CSSC[C@@H](C(N)=O)NC(=O)[C@H](C(C)(C)C)NC(=O)[C@H](CO)NC(=O)[C@H](Cc2c[nH]c3ccccc23)NC(=O)[C@H](CCN)NC(=O)[C@@H](CCN)NC(=O)[C@H](CCC(=O)N[C@@H](CCN)C(=O)N[C@H](C(=O)N[C@@H](CN)C(=O)N[C@H]2CCNC(=O)[C@H]([C@@H](C)O)NC(=O)[C@H](CCN)NC(=O)[C@H](CCN)NC(=O)[C@H](CC(C)C)NC(=O)[C@@H](CC(C)C)NC(=O)[C@H](CCN)NC2=O)[C@@H](C)O)NC(=O)[C@H](CN)NC(=O)[C@H](Cc2ccc(O)cc2)NC1=O)C(C)C [Example 10] (I: Ac-VCY[Dap]E[dDab][Dab]WS[Tle]C-NH2 / II: [Dab]T[Dap][Dab][Dab][dL]L[Dab][Dab]T; disulfide I:2-I:11; amide I:5-II:N; lactam II:4-II:C)	0.25 µg/mL (≈ 0.108 µM)	0.125 µg/mL (≈ 0.0538 µM)	0.25 µg/mL (≈ 0.108 µM)	0.5 µg/mL (≈ 0.215 µM)	0.125 µg/mL (≈ 0.0538 µM)	8 µg/mL (≈ 3.44 µM)	0.25 µg/mL (≈ 0.108 µM)	0.125 µg/mL (≈ 0.0538 µM)	<1%
CC(=O)N[C@H](C(=O)N[C@H](C(=O)N[C@@H](Cc1ccc(O)cc1)C(=O)N[C@H]1CSSC[C@@H](C(=O)N[C@H](C(=O)N[C@@H](CO)C(N)=O)C(C)C)NC(=O)[C@H](Cc2c[nH]c3ccccc23)NC(=O)[C@H](CCO)NC(=O)[C@@H](CCN)NC(=O)[C@H](CCC(=O)N[C@@H](CCN)C(=O)N[C@H](C(=O)N[C@@H](CCN)C(=O)N[C@H]2CCNC(=O)[C@H]([C@@H](C)O)NC(=O)[C@H](CCN)NC(=O)[C@H](CCN)NC(=O)[C@H](CC(C)C)NC(=O)[C@@H](CC(C)C)NC(=O)[C@H](CCN)NC2=O)[C@@H](C)O)NC1=O)[C@@H](C)O)C(C)C [Example 11] (I: Ac-VTYCE[dDab][hSer]WCVS-NH2 / II: [Dab]T[Dab][Dab][Dab][dL]L[Dab][Dab]T; disulfide I:4-I:9; amide I:5-II:N; lactam II:4-II:C)	0.125 µg/mL (≈ 0.0534 µM)	0.25 µg/mL (≈ 0.107 µM)	0.125 µg/mL (≈ 0.0534 µM)	4 µg/mL (≈ 1.71 µM)	8 µg/mL (≈ 3.42 µM)	4 µg/mL (≈ 1.71 µM)	2 µg/mL (≈ 0.854 µM)	0.125 µg/mL (≈ 0.0534 µM)	1%
CN[C@H](C(=O)N[C@H]1CSSC[C@@H](C(N)=O)NC(=O)[C@H](C(C)C)NC(=O)[C@H](CCO)NC(=O)[C@H](Cc2c[nH]c3ccccc23)NC(=O)[C@H](CCO)NC(=O)[C@@H](CCN)NC(=O)[C@H](CCC(=O)N[C@@H](CCN)C(=O)N[C@H](C(=O)N[C@@H](CCN)C(=O)N[C@H]2CCNC(=O)[C@H]([C@@H](C)O)NC(=O)[C@H](CCN)NC(=O)[C@H](CCN)NC(=O)[C@H](CC(C)C)NC(=O)[C@@H](CC(C)C)NC(=O)[C@H](CCN)NC2=O)[C@@H](C)O)NC(=O)[C@H](CCN)NC(=O)[C@H](Cc2ccc(O)cc2)NC1=O)C(C)C [Example 57] (I: H-[NMeV]CY[Dab]E[dDab][hSer]W[hSer]VC-NH2 / II: [Dab]T[Dab][Dab][Dab][dL]L[Dab][Dab]T; disulfide I:2-I:11; amide I:5-II:N; lactam II:4-II:C)	0.25 µg/mL (≈ 0.107 µM)	0.25 µg/mL (≈ 0.107 µM)	0.125 µg/mL (≈ 0.0537 µM)	4 µg/mL (≈ 1.72 µM)	0.5 µg/mL (≈ 0.215 µM)	0.5 µg/mL (≈ 0.215 µM)	0.25 µg/mL (≈ 0.107 µM)	0.125 µg/mL (≈ 0.0537 µM)	3%
